According to ChEMBL document CHEMBL5113393, “Discovery of 2-((2-methylbenzyl)thio)-6-oxo-4-(3,4,5-trimethoxyphenyl)-1,6-dihydropyrimidine-5-carbonitrile as a novel and effective bromodomain and extra-terminal (BET) inhibitor for the treatment of sepsis” (Eur J Med Chem, 2022):
Active and inactive are the calls of the source. The rule behind the calls is not given here.

Columns and labels:
Mus musculus [1] = test: Protection against LPS-induced sepsis in C57BL/6 mouse model assessed as improvement in orbital movement at 30 mg/kg, ip qd administered for 3 days followed by LPS stimulation; assay type: functional, organism-based; conditions: time 3.0 day
RAW264.7 [2] = test: Antiinflammatory activity in mouse RAW264.7 cells assessed as reduction in LPS-induced TNF-alpha mRNA expression preincubated for 2 hrs followed by LPS stimulation and measured after 22 hrs by RT-qPCR analysis; assay type: functional, cell-based; conditions: dose 5-25 µM, time 24.0 hrs, DDE = dose-dependent effect
RAW264.7 [3] = test: Antiinflammatory activity in mouse RAW264.7 cells assessed as reduction in LPS-induced TNF-alpha level at 5 to 10 uM preincubated for 2 hrs followed by LPS stimulation and measured after 22 hrs by ELISA; assay type: functional, cell-based; conditions: dose 5-10 µM, time 24.0 hrs
Mus musculus [4] = test: Protection against LPS-induced sepsis in C57BL/6 mouse model assessed as improvement in mobility at 30 mg/kg, ip qd administered for 3 days followed by LPS stimulation; assay type: functional, organism-based; conditions: time 3.0 day
Mus musculus [5] = test: Protection against LPS-induced sepsis in C57BL/6 mouse model assessed as reduction in white secretion from eyes at 30 mg/kg, ip qd administered for 3 days followed by LPS stimulation; assay type: functional, organism-based; conditions: time 3.0 day
RAW264.7 [6] = test: Antiinflammatory activity in mouse RAW264.7 cells assessed as reduction in LPS-induced IL-1beta mRNA expression preincubated for 2 hrs followed by LPS stimulation and measured after 22 hrs by RT-qPCR analysis; assay type: functional, cell-based; conditions: dose 5-25 µM, time 24.0 hrs, DDE = dose-dependent effect
[7] = target: Bromodomain-containing protein 4 (Homo sapiens, UniProt O60885); test: Inhibition of BRD4 BD1 (unknown origin) using FAM-labeled JQ-1 as fluorescent substrate assessed as inhibition constant incubated for 30 mins by competitive fluorescence polarization method
Mus musculus [8] = test: Antiinflammatory activity against LPS-induced sepsis in C57BL/6 mouse model assessed as reduction in TNF-alpha level at 15 mg/kg, ip qd administered for 3 days followed by LPS stimulation and measured after 12 hrs by ELISA; assay type: functional, organism-based; conditions: time 84.0 hrs
Mus musculus [9] = test: Protection against LPS-induced sepsis in C57BL/6 mouse model assessed as reduction in hypothermia administered intraperitoneally daily for 3 days followed by LPS stimulation for 12 hrs and measured every 1 hr by digital thermometer; assay type: functional, organism-based; conditions: dose lower […], dose upper 30.0 mg/kg, route ip, time 84.0 hrs, DDE = dose-dependent effect
RAW264.7 [10] = test: Antiinflammatory activity in mouse RAW264.7 cells assessed as inhibition of LPS-induced NO production at 5 uM preincubated for 2 hrs followed by LPS stimulation and measured after 22 hrs by Griess reagent-based assay relative to control; assay type: functional; conditions: time 24 hrs
RAW264.7 [11] = test: Antiinflammatory activity in mouse RAW264.7 cells assessed as reduction in LPS-induced IL-6 level at 5 to 10 uM preincubated for 2 hrs followed by LPS stimulation and measured after 22 hrs by ELISA; assay type: functional, cell-based; conditions: dose 5-10 µM, time 24.0 hrs
Mus musculus [12] = test: Protection against LPS-induced sepsis in C57BL/6 mouse model assessed as increase in survival rate at 30 mg/kg, ip qd administered for 3 days followed by LPS stimulation and measured every 2 hrs for 120 hrs (reference value: 10%); assay type: functional
RAW264.7 [13] = test: Antiinflammatory activity in mouse RAW264.7 cells assessed as reduction in LPS-induced IL-6 mRNA expression preincubated for 2 hrs followed by LPS stimulation and measured after 22 hrs by RT-qPCR analysis; assay type: functional, cell-based; conditions: dose 5-25 µM, time 24.0 hrs, DDE = dose-dependent effect
Mus musculus [14] = test: Antiinflammatory activity against LPS-induced sepsis in C57BL/6 mouse model assessed as reduction in IL-6 level at 15 mg/kg, ip qd administered for 3 days followed by LPS stimulation and measured after 12 hrs by ELISA; assay type: functional, organism-based; conditions: time 84.0 hrs
Mus musculus [15] = test: Protection against LPS-induced sepsis in C57BL/6 mouse model assessed as increase in survival rate at 15 mg/kg, ip qd administered for 3 days followed by LPS stimulation and measured every 2 hrs for 120 hrs (reference value: 10%); assay type: functional
RAW264.7 [16] = test: Antiinflammatory activity in mouse RAW264.7 cells assessed as inhibition of LPS-induced NO production at 10 uM preincubated for 2 hrs followed by LPS stimulation and measured after 22 hrs by Griess reagent-based assay relative to control; assay type: functional; conditions: time 24 hrs

COc1cc(-c2nc(SCc3ccccc3C)[nH]c(=O)c2C#N)cc(OC)c1OC
Activity (Mus musculus [1]): Active | Activity (RAW264.7 [2]): Dde | Activity (RAW264.7 [3]): Active | Activity (Mus musculus [4]): Active | Activity (Mus musculus [5]): Active | Activity (RAW264.7 [6]): Dde | Ki [7]: 830 nM | Activity (Mus musculus [8]): Active | Activity (Mus musculus [9]): Dde | inhibition at 5 µM (RAW264.7 [10]): 74.2% | Activity (RAW264.7 [11]): Active | survival at 30 mg/kg (Mus musculus [12]): 80% | Activity (RAW264.7 [13]): Dde | Activity (Mus musculus [14]): Active | survival at 15 mg/kg (Mus musculus [15]): 50% | inhibition at 10 µM (RAW264.7 [16]): 99.8%
